According to article PMC7188713, “Phase 1 study of napabucasin, a cancer stemness inhibitor, in patients with advanced solid tumors” (Cancer Chemotherapy and Pharmacology, 2020):

Legend:
[1] = Phase 1 dose-escalation study: safety (DLT, MTD, adverse events); assay type: in vivo
Description: This Phase 1, open-label, dose-escalation study (3 + 3 design) was carried out at the National Cancer Center Hospital East in Japan. Patients received napabucasin 240 mg twice daily (BID) (Cohort 1), 480 mg BID (Cohort 2), or 720 mg BID (Cohort 3). Day 1 was defined as the day the first dose of napabucasin was administered. All patients were hospitalized until PK assessments were completed (Day 30), though patients were permitted to go/stay out during this period at the discretion of the investigators. […] Dose escalation would continue if no DLTs were observed, and if one of the first three patients experienced a DLT within the first cycle an additional three patients would be enrolled. Dose escalation would be halted if ≥ 2 of the first three patients (or ≥ 2 of the six patients, if additional patients were enrolled) experienced a DLT. If ≤ 1 of the patients in Cohort 3 (highest dose) experienced an observable DLT, then three additional patients were enrolled and would receive the highest dose level of napabucasin, and DLTs would be evaluated in the additional patients. Study treatment was given in 28-day cycles until disease progression or intolerable toxicity due to AEs.
Safety endpoints included AEs, drug-related AEs, vital signs, body weight, laboratory values, and 12-lead ECG. All details of AEs were recorded, including the severity of the event. The severity of AEs was classified according to CTCAE v4.0-JCOG. Napabucasin dose could be reduced or interrupted due to AEs if considered necessary by the investigators, and later reinstated if the AE recovered to Grade 2 or lower. It could also be permanently discontinued in patients who met the discontinuation criteria, which included AEs that rendered trial continuation difficult, aggravation of underlying disease, and withdrawal of consent. Body weight was measured at baseline and Day 29 of Cycle 2, and every 28 days in subsequent cycles. Vital signs were measured at baseline, Days 1, 2, 8, 15, and 22 of Cycle 1, Days 29, 36, 43, and 50 of Cycle 2, and every 28 days in subsequent cycles. 12-lead ECG was measured at baseline and Day 57 in Cycle 3, and every 28 days in subsequent cycles. Laboratory values were recorded at baseline, Days 8, 15, and 22 in Cycle 1, Days 29, 36, 43, and 50 in Cycle 2, and every 28 days in subsequent cycles.
The safety and antitumor activity (intention-to-treat [ITT]) analysis populations included all patients that received at least one dose of napabucasin. The DLT analysis population included all patients that received at least one dose of napabucasin with at least 80% compliance ([number of capsules actually ingested/number of capsules that should have been ingested per dose […]] × 100) during the DLT evaluation period, and those patients who experienced DLT during the evaluation period regardless of compliance. The PK population included all patients that received at least one dose of napabucasin and had plasma napabucasin concentration data for at least one-time point after the first dose of napabucasin.

[2] = tested on: advanced cancer; conditions: cited from earlier work
[3] = tested on: colorectal cancer; design: method as in PMID 29397354; conditions: cited from earlier work
[4] = all grades, all cohorts, 14 patients

CC(=O)c1cc2c(o1)C(=O)c1ccccc1C2=O [napabucasin]
MTD (maximum tolerated dose) ([1]; 28-day cycles, BID dosing): 1440 mg/day
Any drug-related adverse event, Grade 1 ([1]; Cohort 1, 480 mg/day, n = 3): 1 (33.3) Number of patients (%)
Drug-related abdominal pain lower (Grade 1) ([1]; Cohort 1, 480 mg/day, n = 3): 0 (0.0) Number of patients (%)
Drug-related anorexia, Grade 1 ([1]; Cohort 1, 480 mg/day, n = 3): 1 (33.3) Number of patients (%)
Drug-related anorexia, Grade 2 ([1]; Cohort 1, 480 mg/day, n = 3): 0 (0.0) Number of patients (%)
Drug-related anorexia, Grade 3 ([1]; Cohort 1, 480 mg/day, n = 3): 0 (0.0) Number of patients (%)
Drug-related diarrhea, Grade 1 ([1]; Cohort 1, 480 mg/day, n = 3): 1 (33.3) Number of patients (%)
Drug-related nausea (Grade 1) ([1]; Cohort 1, 480 mg/day, n = 3): 0 (0.0) Number of patients (%)
Drug-related rash (Grade 1) ([1]; Cohort 1, 480 mg/day, n = 3): 0 (0.0) Number of patients (%)
Drug-related urinary tract infection (Grade 1) ([1]; Cohort 1, 480 mg/day, n = 3): 0 (0.0) Number of patients (%)
Any drug-related adverse event, Grade 1 ([1]; Cohort 2, 960 mg/day, n = 4): 4 (100) Number of patients (%)
Drug-related abdominal pain lower (Grade 1) ([1]; Cohort 2, 960 mg/day, n = 4): 1 (25.0) Number of patients (%)
Drug-related anorexia, Grade 1 ([1]; Cohort 2, 960 mg/day, n = 4): 0 (0.0) Number of patients (%)
Drug-related anorexia, Grade 2 ([1]; Cohort 2, 960 mg/day, n = 4): 0 (0.0) Number of patients (%)
Drug-related anorexia, Grade 3 ([1]; Cohort 2, 960 mg/day, n = 4): 0 (0.0) Number of patients (%)
Drug-related diarrhea, Grade 1 ([1]; Cohort 2, 960 mg/day, n = 4): 3 (75.0) Number of patients (%)
Drug-related nausea (Grade 1) ([1]; Cohort 2, 960 mg/day, n = 4): 0 (0.0) Number of patients (%)
Drug-related rash (Grade 1) ([1]; Cohort 2, 960 mg/day, n = 4): 1 (25.0) Number of patients (%)
Drug-related urinary tract infection (Grade 1) ([1]; Cohort 2, 960 mg/day, n = 4): 1 (25.0) Number of patients (%)
Any drug-related adverse event, Grade 1 ([1]; Cohort 3, 1440 mg/day, n = 7): 4 (57.1) Number of patients (%)
Any drug-related adverse event, Grade 2 ([1]; Cohort 3, 1440 mg/day, n = 7): 1 (14.3) Number of patients (%)
Any drug-related adverse event, Grade 3 ([1]; Cohort 3, 1440 mg/day, n = 7): 1 (14.3) Number of patients (%)
Drug-related abdominal pain lower (Grade 1) ([1]; Cohort 3, 1440 mg/day, n = 7): 0 (0.0) Number of patients (%)
Drug-related anorexia, Grade 1 ([1]; Cohort 3, 1440 mg/day, n = 7): 0 (0.0) Number of patients (%)
Drug-related anorexia, Grade 2 ([1]; Cohort 3, 1440 mg/day, n = 7): 1 (14.3) Number of patients (%)
Drug-related anorexia, Grade 3 ([1]; Cohort 3, 1440 mg/day, n = 7): 1 (14.3) Number of patients (%)
Drug-related diarrhea, Grade 1 ([1]; Cohort 3, 1440 mg/day, n = 7): 4 (57.1) Number of patients (%)
Drug-related diarrhea, Grade 3 ([1]; Cohort 3, 1440 mg/day, n = 7): 1 (14.3) Number of patients (%)
Drug-related nausea (Grade 1) ([1]; Cohort 3, 1440 mg/day, n = 7): 4 (57.1) Number of patients (%)
Drug-related rash (Grade 1) ([1]; Cohort 3, 1440 mg/day, n = 7): 0 (0.0) Number of patients (%)
Drug-related urinary tract infection (Grade 1) ([1]; Cohort 3, 1440 mg/day, n = 7): 0 (0.0) Number of patients (%)
Initial onset of nausea, most frequently observed ([1]; after the first dose): 1 to 14 days
Drug-related nausea, number of patients ([1]; all cohorts, 14 patients): 4 n
Drug-related vomiting, number of patients ([1]; all cohorts, 14 patients): 3 n
Drug-related anorexia, number of patients [1, 4]: 3 n
Drug-related diarrhea, number of patients [1, 4]: 9 n
Any drug-related adverse event, Grade 1 ([1]; human, in vivo): 9 (64.3) Number of patients (%)
Any drug-related adverse event, Grade 2 ([1]; human, in vivo): 1 (7.1) Number of patients (%)
Any drug-related adverse event, Grade 3 ([1]; human, in vivo): 1 (7.1) Number of patients (%)
Drug-related abdominal pain lower (Grade 1) ([1]; human, in vivo): 1 (7.1) Number of patients (%)
Drug-related anorexia, Grade 1 ([1]; human, in vivo): 1 (7.1) Number of patients (%)
Drug-related anorexia, Grade 2 ([1]; human, in vivo): 1 (7.1) Number of patients (%)
Drug-related anorexia, Grade 3 ([1]; human, in vivo): 1 (7.1) Number of patients (%)
Drug-related diarrhea, Grade 1 ([1]; human, in vivo): 8 (57.1) Number of patients (%)
Drug-related diarrhea, Grade 3 ([1]; human, in vivo): 1 (7.1) Number of patients (%)
Drug-related nausea (Grade 1) ([1]; human, in vivo): 4 (28.6) Number of patients (%)
Drug-related rash (Grade 1) ([1]; human, in vivo): 1 (7.1) Number of patients (%)
Drug-related urinary tract infection (Grade 1) ([1]; human, in vivo): 1 (7.1) Number of patients (%)
Drug-related vomiting (Grade 1) ([1]; human, in vivo): 3 (21.4) Number of patients (%)
Initial onset of diarrhea and vomiting, most frequently observed ([1]; human, in vivo): 1 to 7 days
Patients who experienced drug-related AEs ([1]; human, in vivo): 11 patients
Patients with AEs reported ([1]; human, in vivo): 14 patients
Dose reductions due to AEs ([1]; in vivo): no dose reductions due to AEs
Patients with dose interruptions due to AEs ([1]; in vivo): five
Deaths due to AEs ([1]; n = 14): No patients died due to AEs
Dose up to which napabucasin was well tolerated ([2]; 14 cohorts, N = 41): up to 2000 mg/day
Patients with SD as the best response ([2]; Phase 1 dose-escalation study): 65%
Patients who achieved SD [3]: 12%
